What was measured:
Test in all cases: Ba/F3 drug screening, Cell Titer Glo, IC50 Mut/WT
Type in all cases: cell-based
[1] = target: T1, EGFR Ex19del G796S (Homo sapiens, UniProt P00533, DEL746-750/G796S); conditions: PACC; Ex19del G796S; Ba/F3; 72 hours
T1 construct: expressed in transfected cells; host or cells: Ba/F3

[2] = target: T2, EGFR L747S (Homo sapiens, UniProt P00533, L747S); conditions: PACC; L747S; Ba/F3; 72 hours
T2 construct: expressed in transfected cells; host or cells: Ba/F3

[3] = target: T3, EGFR S768dupSVD (Homo sapiens, UniProt P00533, DUP768-770); conditions: Ex20, 72 hours
T3 construct: expressed in transfected cells; host or cells: Ba/F3 cells, retroviral pBabe-Puro vector
Method: (§1) Data represent the ratio of the IC50 value for a given TKI for cells with an ex20ins EGFR mutation to the IC50 value for cells with wildtype EGFR.
(§2) Ba/F3 cell generation, drug screening, and IC50 approximations. Ba/F3 cells were obtained as a gift from Dr. Gordon Mills (MD Anderson Cancer Center), and maintained in RPMI (Sigma) containing 10% FBS, 1% penicillin/streptomycin, and 10 ng/ml recombinant mIL-3 (R&D Biosystems). To establish stable Ba/F3 cell lines, Ba/F3 cells were transduced with retroviruses containing mutant EGFR plasmids for 12-24 hours.
(§3) After 48-72 hours of transduction, 2 μg/ml puromycin (Invitrogen) was added to Ba/F3 cell lines in complete RPMI. To select for EGFR positive cell lines, cells were stained with PE-EGFR (Biolegend) and sorted by FACS. After sorting, EGFR positive cells were maintained in RPMI containing 10% FBS, 1% penicillin/streptomycin, and 1 ng/ml EGF to support cell viability. Drug screening was performed as previously described^41,42. Shortly, cells were plated in 384-well plates (Greiner Bio-One) at 2000-3000 cells per well in technical triplicate. Seven different concentrations of TKIs or DMSO vehicle were added to reach a final volume of 40 μL per well. After 72 hours, 11 μL of Cell Titer Glo (Promega) was added to each well. Plates were incubated for a minimum of 10 minutes, and bioluminescence was determined using a FLUOstar OPTIMA plate reader (BMG LABTECH). Raw bioluminescence values were normalized to DMSO control treated cells, and values were plotted in GraphPad Prism. […] Drug screens were performed in technical triplicate on each plate and either duplicate or triplicate biological replicates. […] Statistical differences between groups were determined by ANOVA as described in the figure legends.

[4] = target: T4, EGFR A763insFQEA (Homo sapiens, UniProt P00533, INS763FQEA); conditions: Classical-Like, 72 hours
T4 construct: expressed in transfected cells; host or cells: Ba/F3 cells, retroviral pBabe-Puro vector

[5] = target: T5, EGFR Ex19del/C797S (Homo sapiens, UniProt P00533, C797S/DEL746-750); conditions: PACC; Ex19del/C797S; Ba/F3; 72 hours
T5 construct: expressed in transfected cells; host or cells: Ba/F3

[6] = target: T6, EGFR L861R (Homo sapiens, UniProt P00533, L861R); conditions: Classical-Like, 72 hours
T6 construct: expressed in transfected cells; host or cells: Ba/F3 cells, retroviral pBabe-Puro vector (vector made by GeneScript from EGFR WT)
Method: (§4) Data represent the ratio of the IC50 value for a given TKI for cells with a classical-like EGFR mutation to the IC50 value for cells with wildtype EGFR.
as §2
(§5) After 48-72 hours of transduction, 2 μg/ml puromycin (Invitrogen) was added to Ba/F3 cell lines in complete RPMI. To select for EGFR positive cell lines, cells were stained with PE-EGFR (Biolegend) and sorted by FACS. After sorting, EGFR positive cells were maintained in RPMI containing 10% FBS, 1% penicillin/streptomycin, and 1 ng/ml EGF to support cell viability. […] Shortly, cells were plated in 384-well plates (Greiner Bio-One) at 2000-3000 cells per well in technical triplicate. Seven different concentrations of TKIs or DMSO vehicle were added to reach a final volume of 40 μL per well. After 72 hours, 11 μL of Cell Titer Glo (Promega) was added to each well. Plates were incubated for a minimum of 10 minutes, and bioluminescence was determined using a FLUOstar OPTIMA plate reader (BMG LABTECH). Raw bioluminescence values were normalized to DMSO control treated cells, and values were plotted in GraphPad Prism. […] Drug screens were performed in technical triplicate on each plate and either duplicate or triplicate biological replicates.

[7] = target: T7, EGFR L858R/V834L (Homo sapiens, UniProt P00533, L858R/V834L); conditions: Classical-Like, 72 hours
T7 construct: expressed in transfected cells; host or cells: Ba/F3 cells, retroviral pBabe-Puro vector

[8] = target: T8, EGFR L747_K754del insATSPE (Homo sapiens, UniProt P00533, DEL747-749/K754E); conditions: T790M-like-3S, 72 hours
T8 construct: expressed in transfected cells; host or cells: Ba/F3 cells, retroviral pBabe-Puro vector

[9] = target: T9, EGFR Ex19del T854I (Homo sapiens, UniProt P00533, DEL746-750/T854I); conditions: PACC; Ex19del T854I; Ba/F3; 72 hours
T9 construct: expressed in transfected cells; host or cells: Ba/F3 (retroviral transduction, pBabe-Puro based vectors)

[10] = target: T10, EGFR L858R/T790M/L718Q (Homo sapiens, UniProt P00533, L718Q/L858R/T790M); conditions: T790M-like-3R, 72 hours
T10 construct: expressed in transfected cells; host or cells: Ba/F3
Method: (§6) Data represent the ratio of the IC50 value for a given TKI for cells with a T790M-like-3R EGFR mutation to the IC50 value for cells with wildtype EGFR.
as §2
(§7) After 48-72 hours of transduction, 2 μg/ml puromycin (Invitrogen) was added to Ba/F3 cell lines in complete RPMI. To select for EGFR positive cell lines, cells were stained with PE-EGFR (Biolegend) and sorted by FACS. After sorting, EGFR positive cells were maintained in RPMI containing 10% FBS, 1% penicillin/streptomycin, and 1 ng/ml EGF to support cell viability. […] Shortly, cells were plated in 384-well plates (Greiner Bio-One) at 2000-3000 cells per well in technical triplicate. Seven different concentrations of TKIs or DMSO vehicle were added to reach a final volume of 40 μL per well. After 72 hours, 11 μL of Cell Titer Glo (Promega) was added to each well. Plates were incubated for a minimum of 10 minutes, and bioluminescence was determined using a FLUOstar OPTIMA plate reader (BMG LABTECH). Raw bioluminescence values were normalized to DMSO control treated cells, and values were plotted in GraphPad Prism. […] Drug screens were performed in technical triplicate on each plate and either duplicate or triplicate biological replicates. […] Statistical differences between groups were determined by ANOVA as described in the figure legends.

[11] = target: T11, EGFR R776H (Homo sapiens, UniProt P00533, R776H); conditions: PACC; R776H; Ba/F3; 72 hours
T11 construct: host or cells: Ba/F3
Method: (§8) Data represent the ratio of the IC50 value for a given TKI for cells with a PACC EGFR mutation to the IC50 value for cells with wildtype EGFR.
as §2
(§9) After 48-72 hours of transduction, 2 μg/ml puromycin (Invitrogen) was added to Ba/F3 cell lines in complete RPMI. To select for EGFR positive cell lines, cells were stained with PE-EGFR (Biolegend) and sorted by FACS. After sorting, EGFR positive cells were maintained in RPMI containing 10% FBS, 1% penicillin/streptomycin, and 1 ng/ml EGF to support cell viability. Drug screening was performed as previously described^41,42. Shortly, cells were plated in 384-well plates (Greiner Bio-One) at 2000-3000 cells per well in technical triplicate. Seven different concentrations of TKIs or DMSO vehicle were added to reach a final volume of 40 μL per well. After 72 hours, 11 μL of Cell Titer Glo (Promega) was added to each well. Plates were incubated for a minimum of 10 minutes, and bioluminescence was determined using a FLUOstar OPTIMA plate reader (BMG LABTECH). Raw bioluminescence values were normalized to DMSO control treated cells, and values were plotted in GraphPad Prism. […] Drug screens were performed in technical triplicate on each plate and either duplicate or triplicate biological replicates.

[12] = target: T12, EGFR L858R/T790M/C797S (Homo sapiens, UniProt P00533, C797S/L858R/T790M); conditions: T790M-like-3R, 72 hours
T12 construct: expressed in transfected cells; host or cells: Ba/F3

[13] = target: T13, EGFR S720P (Homo sapiens, UniProt P00533, S720P); conditions: Classical-Like, 72 hours
T13 construct: expressed in transfected cells; host or cells: Ba/F3 cells, retroviral pBabe-Puro vector (vector made by GeneScript from EGFR WT)
Method: as §4, §2, §5

[14] = target: T14, EGFR Ex19del T790M C797S (Homo sapiens, UniProt P00533, C797S/DEL746-750/T790M); conditions: T790M-like-3R, 72 hours
T14 construct: expressed in transfected cells; host or cells: Ba/F3
Method: as §6, §2, §7

[15] = target: T15, EGFR Ex19del/T790M/G724S (Homo sapiens, UniProt P00533, DEL746-750/G724S/T790M); conditions: T790M-like-3S, 72 hours
T15 construct: expressed in transfected cells; host or cells: Ba/F3

[16] = target: T16, EGFR H773insNPH (Homo sapiens, UniProt P00533, INS773NPH); conditions: Ex20, 72 hours
T16 construct: expressed in transfected cells; host or cells: Ba/F3 cells, retroviral pBabe-Puro vector

[17] = target: T17, EGFR A767insASV (Homo sapiens, UniProt P00533, DUP767-769); conditions: Ex20, 72 hours
T17 construct: expressed in transfected cells; host or cells: Ba/F3 cells, retroviral pBabe-Puro vector

[18] = target: T18, EGFR L858R S784F (Homo sapiens, UniProt P00533, L858R/S784F); conditions: Classical-Like, 72 hours
T18 construct: expressed in transfected cells; host or cells: Ba/F3 cells, retroviral pBabe-Puro vector (vector made by GeneScript from EGFR L858R)

[19] = target: T19, EGFR Ex19del L718V (Homo sapiens, UniProt P00533, DEL746-750/L718V); conditions: PACC; Ex19del L718V; Ba/F3; 72 hours
T19 construct: expressed in transfected cells; host or cells: Ba/F3
Method: as §8, §2, §9

[20] = target: T20, EGFR Ex19del T790M (Homo sapiens, UniProt P00533, DEL746-750/T790M); conditions: T790M-like-3S, 72 hours
T20 construct: expressed in transfected cells; host or cells: Ba/F3

[21] = target: T21, EGFR L833F (Homo sapiens, UniProt P00533, L833F); conditions: Classical-Like, 72 hours
T21 construct: expressed in transfected cells; host or cells: Ba/F3 cells, retroviral pBabe-Puro vector

[22] = target: T22, EGFR E709K L858R (Homo sapiens, UniProt P00533, E709K/L858R); conditions: Classical-Like, 72 hours
T22 construct: expressed in transfected cells; host or cells: Ba/F3 cells, retroviral pBabe-Puro vector
Method: as §4, §2, §5

[23] = target: T23, EGFR Ex19del G724S (Homo sapiens, UniProt P00533, DEL746-750/G724S); conditions: PACC; Ex19del G724S; Ba/F3; 72 hours
T23 construct: expressed in transfected cells; host or cells: Ba/F3

[24] = target: T24, EGFR T725M (Homo sapiens, UniProt P00533, T725M); conditions: Classical-Like, 72 hours
T24 construct: expressed in transfected cells; host or cells: Ba/F3 cells, retroviral pBabe-Puro vector (vector made by GeneScript from EGFR WT)
Method: as §4, §2, §5

[25] = target: T25, EGFR D770insNPG (Homo sapiens, UniProt P00533, INS770NPG); conditions: Ex20, 72 hours
T25 construct: expressed in transfected cells; host or cells: Ba/F3 cells, retroviral pBabe-Puro vector
Method: as §1, §2, §3

[26] = target: T26, EGFR L858R (Homo sapiens, UniProt P00533, L858R); conditions: Classical-Like, 72 hours
T26 construct: expressed in transfected cells; host or cells: Ba/F3 cells, retroviral pBabe-Puro vector
Method: as §4, §2, §5

[27] = target: T27, EGFR L718Q T790M (Homo sapiens, UniProt P00533, L718Q/T790M); conditions: T790M-like-3R, 72 hours
T27 construct: expressed in transfected cells; host or cells: Ba/F3

ratio of IC50 for cells with mutant EGFR to IC50 for cells with wildtype EGFR (Mut/WT) [1]: 4.084 | ratio of IC50 for cells with mutant EGFR to IC50 for cells with wildtype EGFR (Mut/WT) [2]: 0.08122 | ratio of IC50 for cells with mutant EGFR to IC50 for cells with wildtype EGFR (Mut/WT) [3]: 3.075 | ratio of IC50 for cells with mutant EGFR to IC50 for cells with wildtype EGFR (Mut/WT) [4]: 0.02225 | ratio of IC50 for cells with mutant EGFR to IC50 for cells with wildtype EGFR (Mut/WT) [5]: 0.0001375 | ratio of IC50 for cells with mutant EGFR to IC50 for cells with wildtype EGFR (Mut/WT) [6]: 0.03704 | ratio of IC50 for cells with mutant EGFR to IC50 for cells with wildtype EGFR (Mut/WT) [7]: 0.002241 | ratio of IC50 for cells with mutant EGFR to IC50 for cells with wildtype EGFR (Mut/WT) [8]: 4.604 | ratio of IC50 for cells with mutant EGFR to IC50 for cells with wildtype EGFR (Mut/WT) [9]: 1.509 | ratio of IC50 for cells with mutant EGFR to IC50 for cells with wildtype EGFR (Mut/WT) [10]: 4.812 | ratio of IC50 for cells with mutant EGFR to IC50 for cells with wildtype EGFR (Mut/WT) [11]: 0.02185 | ratio of IC50 for cells with mutant EGFR to IC50 for cells with wildtype EGFR (Mut/WT) [12]: 9.625 | ratio of IC50 for cells with mutant EGFR to IC50 for cells with wildtype EGFR (Mut/WT) [13]: 0.01834 | ratio of IC50 for cells with mutant EGFR to IC50 for cells with wildtype EGFR (Mut/WT) [14]: 9.625 | ratio of IC50 for cells with mutant EGFR to IC50 for cells with wildtype EGFR (Mut/WT) [15]: 4.645 | ratio of IC50 for cells with mutant EGFR to IC50 for cells with wildtype EGFR (Mut/WT) [16]: 1.561 | ratio of IC50 for cells with mutant EGFR to IC50 for cells with wildtype EGFR (Mut/WT) [17]: 4.154 | ratio of IC50 for cells with mutant EGFR to IC50 for cells with wildtype EGFR (Mut/WT) [18]: 0.01546 | ratio of IC50 for cells with mutant EGFR to IC50 for cells with wildtype EGFR (Mut/WT) [19]: 0.04127 | ratio of IC50 for cells with mutant EGFR to IC50 for cells with wildtype EGFR (Mut/WT) [20]: 12.68 | ratio of IC50 for cells with mutant EGFR to IC50 for cells with wildtype EGFR (Mut/WT) [21]: 0.1249 | ratio of IC50 for cells with mutant EGFR to IC50 for cells with wildtype EGFR (Mut/WT) [22]: 0.02202 | ratio of IC50 for cells with mutant EGFR to IC50 for cells with wildtype EGFR (Mut/WT) [23]: 4.812 | ratio of IC50 for cells with mutant EGFR to IC50 for cells with wildtype EGFR (Mut/WT) [24]: 0.1059 | ratio of IC50 for cells with mutant EGFR to IC50 for cells with wildtype EGFR (Mut/WT) [25]: 3.835 | ratio of IC50 for cells with mutant EGFR to IC50 for cells with wildtype EGFR (Mut/WT) [26]: 0.00585 | ratio of IC50 for cells with mutant EGFR to IC50 for cells with wildtype EGFR (Mut/WT) [27]: 9.625
SMILES: COc1cc2ncnc(Nc3cccc(Cl)c3F)c2cc1OC(=O)N1CCN(C)C[C@H]1C [AZD3759]

— US20240384350A1, “METHODS OF TREATING CANCER WITH KINASE INHIBITORS” (BOARD OF REGENTS, THE UNIVERSITY OF TEXAS SYSTEM, priority 2021, published 2024)
